Experimental data published in ChEMBL document CHEMBL1143092, “Identification of novel benzimidazole series of potent and selective ORL1 antagonists” (Bioorg Med Chem Lett, 2008).

Legend:
Nociceptin receptor [1] = target: T1, Nociceptin receptor (Homo sapiens, UniProt P41146); experiment: Displacement of [125I]Tyr14-NC from human ORL1 receptor expressed in CHO cell membrane; assay type: cell membranes
Mu-type opioid receptor = Mu-type opioid receptor (Homo sapiens, UniProt P35372); experiment: Displacement of [3H]diprenorphin from human cloned mu opioid receptor expressed in CHO cell membrane; assay type: cell membranes
[2] = target: Kappa-type opioid receptor (Homo sapiens, UniProt P41145); experiment: Displacement of [3H]U-69593 from human cloned kappa opioid receptor expressed in CHO cell membrane; assay type: cell membranes
Nociceptin receptor [3] = target: T1, Nociceptin receptor; experiment: Antagonist activity at human ORL1 receptor expressed in CHO cell membrane by [35S]GTP-gamma-S binding assay; assay type: functional, cell membranes
[4] = target: Delta-type opioid receptor (Homo sapiens, UniProt P41143); experiment: Displacement of [3H]naltrindole from human cloned delta opioid receptor expressed in CHO cell membrane; assay type: cell membranes
Liver microsomes = experiment: Metabolic stability in human liver microsomes; assay type: ADME, Microsome

T1 sequence (P41146 whole entry): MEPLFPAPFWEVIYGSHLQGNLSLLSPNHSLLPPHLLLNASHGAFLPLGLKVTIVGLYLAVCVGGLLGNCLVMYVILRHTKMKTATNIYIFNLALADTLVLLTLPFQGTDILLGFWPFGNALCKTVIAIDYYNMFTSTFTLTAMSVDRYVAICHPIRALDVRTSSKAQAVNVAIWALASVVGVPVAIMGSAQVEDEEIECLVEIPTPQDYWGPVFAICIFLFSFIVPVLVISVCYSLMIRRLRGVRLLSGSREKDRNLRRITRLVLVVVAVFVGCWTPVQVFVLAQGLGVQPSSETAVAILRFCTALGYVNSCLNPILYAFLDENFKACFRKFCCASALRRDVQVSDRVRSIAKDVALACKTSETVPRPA
Chain of Mu-type opioid receptor (P35372 whole entry): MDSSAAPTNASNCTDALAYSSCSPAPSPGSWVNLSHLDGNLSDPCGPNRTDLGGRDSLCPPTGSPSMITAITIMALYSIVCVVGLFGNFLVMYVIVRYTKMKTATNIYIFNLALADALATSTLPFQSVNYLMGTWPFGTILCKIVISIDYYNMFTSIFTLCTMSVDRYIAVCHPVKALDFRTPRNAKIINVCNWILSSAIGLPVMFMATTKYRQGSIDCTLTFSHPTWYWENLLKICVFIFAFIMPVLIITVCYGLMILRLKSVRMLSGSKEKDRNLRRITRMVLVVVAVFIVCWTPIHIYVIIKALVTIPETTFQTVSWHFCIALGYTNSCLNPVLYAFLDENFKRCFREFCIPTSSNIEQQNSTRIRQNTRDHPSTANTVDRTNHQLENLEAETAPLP
Chain of Kappa-type opioid receptor (P41145 whole entry): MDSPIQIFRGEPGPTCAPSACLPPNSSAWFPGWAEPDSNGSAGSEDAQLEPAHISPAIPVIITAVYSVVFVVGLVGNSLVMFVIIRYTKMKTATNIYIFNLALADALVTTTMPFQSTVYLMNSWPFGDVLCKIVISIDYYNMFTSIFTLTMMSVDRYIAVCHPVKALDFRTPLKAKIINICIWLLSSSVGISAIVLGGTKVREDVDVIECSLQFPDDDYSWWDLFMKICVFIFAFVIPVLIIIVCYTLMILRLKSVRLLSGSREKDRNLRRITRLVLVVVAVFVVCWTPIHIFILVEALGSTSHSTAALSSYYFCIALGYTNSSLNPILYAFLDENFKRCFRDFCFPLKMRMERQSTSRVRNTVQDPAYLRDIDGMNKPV
Chain of Delta-type opioid receptor (P41143 whole entry): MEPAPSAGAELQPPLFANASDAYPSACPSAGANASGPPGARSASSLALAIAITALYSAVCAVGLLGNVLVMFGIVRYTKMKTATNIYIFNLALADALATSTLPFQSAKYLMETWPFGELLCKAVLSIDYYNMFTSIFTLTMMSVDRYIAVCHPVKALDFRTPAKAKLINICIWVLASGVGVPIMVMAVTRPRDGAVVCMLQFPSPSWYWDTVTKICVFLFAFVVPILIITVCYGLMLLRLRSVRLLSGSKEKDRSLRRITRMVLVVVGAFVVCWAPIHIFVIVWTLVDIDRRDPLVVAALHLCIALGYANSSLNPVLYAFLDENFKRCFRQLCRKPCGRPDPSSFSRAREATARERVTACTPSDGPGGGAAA

Row | SMILES | IC50 (Nociceptin receptor [1]) | IC50 (Mu-type opioid receptor) | IC50 [2] | IC50 (Nociceptin receptor [3]) | IC50 [4] | Stability (Liver microsomes)
1 | Fc1ccc(CSc2nc3cc(F)c(N4CCNCC4)cc3[nH]2)cc1 | 63 nM |  |  |  |  | 
2 | CCC(CC)Sc1nc2cc(C(C)=O)c(N3CCNCC3)cc2[nH]1 | 3100 nM |  |  |  |  | 
3 | CSc1nc2cc(F)c(N3CCNCC3)cc2[nH]1 | 2900 nM |  |  |  |  | 
4 | Fc1ccc(CSc2nc3cc(F)c(N4CCN(CC5CCCCCCC5)CC4)cc3[nH]2)cc1 | > 10000 nM |  |  |  |  | 
5 | CC(C)Sc1nc2cc(Cl)c(N3CCN(CCO)CC3)cc2[nH]1 | 120 nM | 3100 nM | 60 nM |  |  | 
6 | Fc1cc2nc(SCc3cccc(Cl)c3Cl)[nH]c2cc1N1CCNCC1 | 6 nM |  |  | 140 nM |  | 
7 | Fc1cc2nc(SCc3c(Cl)cccc3Cl)[nH]c2cc1N1CCNCC1 | 55 nM |  |  | 2700 nM |  | 
8 | Fc1cc2nc(SCc3ccccc3Cl)[nH]c2cc1N1CCNCC1 | 23 nM |  |  | 380 nM |  | 
9 | CN1CCN(c2cc3[nH]c(SCc4ccc(F)cc4)nc3cc2F)CC1 | 910 nM |  |  |  |  | 
10 | OCCN1CCN(c2cc3[nH]c(SC4CCCCC4)nc3cc2Cl)CC1 | 20 nM | 520 nM | 31 nM | 20 nM |  | 
11 | Fc1cc2nc(SCC3CCCCC3)[nH]c2cc1N1CCNCC1 | 17 nM |  |  | 930 nM |  | 
12 | Fc1cc2nc(SCc3ccccc3)[nH]c2cc1N1CCNCC1 | 140 nM |  |  |  |  | 
13 | CCC(CC)Sc1nc2cc(Cl)c(N3CCN(CCO)CC3)cc2[nH]1 | 9.7 nM | 3100 nM | 60 nM | 3.3 nM | > 1000 nM | 51%
14 | Cc1ccc(CSc2nc3cc(F)c(N4CCNCC4)cc3[nH]2)cc1 | 31 nM |  |  |  |  | 
15 | CC(C)(C)Sc1nc2cc(Cl)c(N3CCN(CCO)CC3)cc2[nH]1 | 17 nM | 4400 nM | 120 nM | 21 nM |  | 
16 | CC1(Sc2nc3cc(Cl)c(N4CCN(CCO)CC4)cc3[nH]2)CCCCC1 | 1.8 nM | 1400 nM | 88 nM | 1.8 nM |  | 
17 | CCC(CC)Sc1nc2ccc(N3CCNCC3)cc2[nH]1 | 320 nM |  |  |  |  | 
18 | O=S(=O)(Cc1cccc(Cl)c1Cl)c1nc2cc(F)c(N3CCNCC3)cc2[nH]1 | 240 nM |  |  |  |  | 
19 | Fc1ccc(CSc2nc3cc(F)c(N4CCN(Cc5ccccc5)CC4)cc3[nH]2)cc1 | 8200 nM |  |  |  |  | 
20 | Cc1ccccc1CSc1nc2cc(F)c(N3CCNCC3)cc2[nH]1 | 78 nM |  |  | 1700 nM |  | 
21 | Cc1cccc(CSc2nc3cc(F)c(N4CCNCC4)cc3[nH]2)c1 | 180 nM |  |  |  |  | 
22 | CCC(CC)Sc1nc2cc(F)c(N3CCNCC3)cc2[nH]1 | 4.7 nM |  |  | 690 nM |  | 
23 | CCC(CC)Sc1nc2cc(Cl)c(N3CCN(CC)CC3)cc2[nH]1 | 10 nM |  |  | 3.9 nM |  | 31%
24 | CCC(CC)Sc1nc2cc(C#N)c(N3CCNCC3)cc2[nH]1 | 15 nM |  |  | 78 nM |  | 
25 | CCC(C)(CC)Sc1nc2cc(Cl)c(N3CCN(CCO)CC3)cc2[nH]1 | 1.2 nM | 2800 nM | 170 nM | 0.66 nM | > 1000 nM | 
26 | CCC(C)(C)Sc1nc2cc(Cl)c(N3CCN(CCO)CC3)cc2[nH]1 | 5.6 nM | 3500 nM | 160 nM | 2.5 nM |  | 
27 | [O-][S+](Cc1cccc(Cl)c1Cl)c1nc2cc(F)c(N3CCNCC3)cc2[nH]1 (centres undefined) | 2900 nM |  |  |  |  | 
